# Measured values reported in patent publication US20260184663A1, “INDENE COMPOUNDS, PHARMACEUTICAL COMPOSITIONS THEREOF, AND THEIR THERAPEUTIC APPLICATIONS” (NucMito Pharmaceuticals co. Ltd., priority 2022, published 2026).
# Experiments:
# Type in all cases: cell-based
# [1] = test system: A549 (lung adenocarcinoma); experiment: Antiproliferative activity (CCK-8 cell viability), A549; conditions: Homo sapiens, 72 h; for inhibition at 3.3 µM: Compound concentration: 3.3 μM; for inhibition at 3.3 µM / inhibition at 10 µM: read-out: Antiproliferative activity in cancerous cells, A549 (inhibition of cell growth); for inhibition at 10 µM: Compound concentration: 10 μM
# Protocol: (§1) The antiproliferative activity of a compound was determined in the following cell lines: MDA-MB-231 (breast cancer), HepG2 (liver cancer), SW480 (colon cancer), B16F10 (malignant melanoma), A431 (epidermoid carcinoma), A549 (lung adenocarcinoma), and HeLa (cervical cancer). MDA-MB-231, HepG2, SW480, B16F10, and A431 cells were cultured in Dulbecco's modified Eagle's medium (DMEM) containing 10% fetal bovine serum (FBS). HeLa cells were cultured in MEM/EBSS (MEM) containing 10% FBS. A549 cells were maintained in Kaighn's modification of Ham's F-12 medium containing 10% FBS. A Cell Counting Kit-8 (CCK-8) was used to measure the cell viability of different cells following treatment with the compound.
# (§2) Briefly cells were seeded in a 96-well plate at a density of 2,000-5,000 cells/well. Following attachment, the cells were treated with the compound in media at a compound concentration of 3.3 μM, 10 μM, or 30 μM. After the cells were incubated at 37° C. for 72 h, a CCK-8 solution (10 μL) was added to each well. After incubation at 37° C. for 4 h, the absorbance value of each well was determined using a multi-well plate reader at 450 nm. The wells treated with DMSO were taken as a vehicle control. Data were also obtained similarly for all the replicates and the percentage of cell viability was determined with respect to the DMSO-treated cells. The results are summarized in Tables 2-4, wherein A represents no less than […] of cell growth; B represents no less than 30% but less than 50% inhibition of cell growth; and C represents less than 30% inhibition of cell growth.
# [2] = test system: HepG2 (liver cancer); experiment: Antiproliferative activity (CCK-8 cell viability), HepG2; conditions: Homo sapiens, 72 h, read-out: Antiproliferative activity in cancerous cells, HepG2 (inhibition of cell growth); for inhibition at 3.3 µM: Compound concentration: 3.3 μM; for inhibition at 10 µM: Compound concentration: 10 μM
# Protocol: as §1, §2
# [3] = test system: B16F10 (malignant melanoma); experiment: Antiproliferative activity (CCK-8 cell viability), B16F10; conditions: Mus musculus, 72 h, read-out: Antiproliferative activity in cancerous cells, B16F10 (inhibition of cell growth); for inhibition at 3.3 µM: B16-F10, Compound concentration: 3.3 μM; for inhibition at 10 µM: B16-F10, Compound concentration: 10 μM
# Protocol: as §1, §2
# [4] = test system: MDA-MB-231 (breast cancer); experiment: Antiproliferative activity (CCK-8 cell viability), MDA-MB-231; conditions: Homo sapiens, 72 h; for inhibition at 3.3 µM: Compound concentration: 3.3 μM; for inhibition at 3.3 µM / inhibition at 10 µM: read-out: Antiproliferative activity in cancerous cells, MDA-MB-231 (inhibition of cell growth); for inhibition at 10 µM: Compound concentration: 10 μM
# Protocol: as §1, §2
# [5] = test system: HeLa (cervical cancer); experiment: Antiproliferative activity (CCK-8 cell viability), HeLa; conditions: Homo sapiens, 72 h, read-out: Antiproliferative activity in cancerous cells, HELA (inhibition of cell growth); for inhibition at 3.3 µM: Compound concentration: 3.3 μM; for inhibition at 10 µM: Compound concentration: 10 μM
# Protocol: as §1, §2
# [6] = test system: SW480 (colon cancer); experiment: Antiproliferative activity (CCK-8 cell viability), SW480; conditions: Homo sapiens, 72 h; for inhibition at 3.3 µM: Compound concentration: 3.3 μM; for inhibition at 3.3 µM / inhibition at 10 µM: read-out: Antiproliferative activity in cancerous cells, SW480 (inhibition of cell growth); for inhibition at 10 µM: Compound concentration: 10 μM
# Protocol: as §1, §2
# [7] = test system: A431 (epidermoid carcinoma); experiment: Antiproliferative activity (CCK-8 cell viability), A431; conditions: Homo sapiens, 72 h; for inhibition at 3.3 µM: A-431, Compound concentration: 3.3 μM; for inhibition at 3.3 µM / inhibition at 10 µM: read-out: Antiproliferative activity in cancerous cells, A431 (inhibition of cell growth); for inhibition at 10 µM: A-431, Compound concentration: 10 μM
# Protocol: as §1, §2
SMILES,inhibition at 3.3 µM [1],inhibition at 10 µM [1],"inhibition at 30 µM ([1]; Compound concentration: 30 μM, read-out: Antiproliferative activity in cancerous cells, A549)",inhibition at 3.3 µM [2],inhibition at 10 µM [2],inhibition at 3.3 µM [3],inhibition at 10 µM [3],inhibition at 3.3 µM [4],inhibition at 10 µM [4],inhibition at 3.3 µM [5],inhibition at 10 µM [5],inhibition at 3.3 µM [6],inhibition at 10 µM [6],"inhibition at 30 µM ([6]; Compound concentration: 30 μM, read-out: Antiproliferative activity in cancerous cells, SW480)",inhibition at 3.3 µM [7],inhibition at 10 µM [7],"inhibition at 30 µM ([7]; A-431, Compound concentration: 30 μM, read-out: Antiproliferative activity in cancerous cells, A431)","inhibition at 30 µM ([4]; Compound concentration: 30 μM, read-out: Antiproliferative activity in cancerous cells, MDA-MB-231)"
"CC1=C(CC(=O)O)c2cc(F)ccc2/C1=C\c1cccc(CNc2ccccc2)c1 [B14, (Z)-2-(5-Fluoro-2-methyl-1-(3-((phenylamino)methyl)benzylidene)-1H-inden-3-yl)acetic acid]",≥ 50%,≥ 50%,30 to 50%,< 30%,< 30%,< 30%,30 to 50%,< 30%,30 to 50%,30 to 50%,30 to 50%,< 30%,< 30%,30 to 50%,< 30%,< 30%,30 to 50%,–
"CC1=C(CC(=O)O)c2cc(F)ccc2/C1=C\c1ccc(CN(CCc2ccccc2)c2ccccc2)cc1 [B19, (Z)-2-(5-Fluoro-2-methyl-1-(4-((phenethyl(phenyl)amino)methyl)benzylidene)-1H-inden-3-yl)acetic acid]",≥ 50%,≥ 50%,–,< 30%,≥ 50%,< 30%,≥ 50%,≥ 50%,≥ 50%,30 to 50%,≥ 50%,30 to 50%,≥ 50%,–,< 30%,≥ 50%,–,–
"CC1=C(CC(=O)O)c2cc(F)ccc2/C1=C\c1ccc(OCCc2ccccc2)cc1 [B30, (Z)-2-(5-Fluoro-2-methyl-1-(4-phenethoxybenzylidene)-1H-inden-3-yl)acetic acid]",30 to 50%,≥ 50%,–,< 30%,≥ 50%,< 30%,< 30%,< 30%,≥ 50%,< 30%,≥ 50%,< 30%,≥ 50%,–,≥ 50%,≥ 50%,–,–
"CC1=C(CC(=O)O)c2cc(F)ccc2/C1=C\c1ccc(OCCc2ccc(F)cc2)cc1 [B31, (Z)-2-(5-Fluoro-1-(4-(4-fluorophenethoxy)benzylidene)-2-methyl-1H-inden-3-yl)acetic acid]",30 to 50%,30 to 50%,–,< 30%,≥ 50%,≥ 50%,≥ 50%,< 30%,≥ 50%,< 30%,≥ 50%,< 30%,< 30%,–,30 to 50%,≥ 50%,–,–
"CC1=C(CC(=O)O)c2cc(F)ccc2/C1=C\c1ccc(CCOc2ccccc2)cc1 [B32, (Z)-2-(5-Fluoro-2-methyl-1-(4-(2-phenoxyethyl)benzylidene)-1H-inden-3-yl)acetic acid]",30 to 50%,≥ 50%,–,< 30%,≥ 50%,30 to 50%,≥ 50%,< 30%,< 30%,< 30%,≥ 50%,30 to 50%,30 to 50%,–,30 to 50%,≥ 50%,–,–
"CC1=C(CC(=O)O)c2cc(F)ccc2/C1=C\c1ccc(CCOc2ccc(F)cc2)cc1 [B33, (Z)-2-(5-Fluoro-1-(4-(2-(4-fluorophenoxy)ethyl)benzylidene)-2-methyl-1H-inden-3-yl)acetic acid]",< 30%,30 to 50%,–,< 30%,30 to 50%,≥ 50%,≥ 50%,< 30%,30 to 50%,< 30%,30 to 50%,< 30%,30 to 50%,–,≥ 50%,≥ 50%,–,–
"CC1=C(CC(=O)O)c2cc(F)ccc2/C1=C\c1ccc(CCOc2ccc(Cl)cc2)cc1 [B34, (Z)-2-(1-(4-(2-(4-Chlorophenoxy)ethyl)benzylidene)-5-fluoro-2-methyl-1H-inden-3-yl)acetic acid]",30 to 50%,≥ 50%,–,< 30%,≥ 50%,30 to 50%,≥ 50%,< 30%,< 30%,< 30%,≥ 50%,< 30%,≥ 50%,–,≥ 50%,≥ 50%,–,–
"CC1=C(CC(=O)O)c2cc(F)ccc2/C1=C\c1ccc(OCCc2ccc(Cl)cc2)cc1 [B35, (Z)-2-(1-(4-(4-Chlorophenethoxy)benzylidene)-5-fluoro-2-methyl-1H-inden-3-yl)acetic acid]",≥ 50%,≥ 50%,–,30 to 50%,≥ 50%,≥ 50%,≥ 50%,≥ 50%,≥ 50%,< 30%,≥ 50%,< 30%,≥ 50%,–,≥ 50%,≥ 50%,–,–
"CC1=C(CC(=O)O)c2cc(F)ccc2/C1=C\c1ccc(CSc2nc3ccccc3[nH]2)cc1 [B44, (Z)-2-(1-(4-(((1H-Benzo[d]imidazol-2-yl)thio)methyl)benzylidene)-5-fluoro-2-methyl-1H-inden-3-yl)acetic acid]",< 30%,≥ 50%,–,≥ 50%,≥ 50%,≥ 50%,≥ 50%,≥ 50%,≥ 50%,≥ 50%,≥ 50%,30 to 50%,≥ 50%,–,< 30%,≥ 50%,–,–
"CC1=C(CC(=O)O)c2cc(F)ccc2/C1=C\c1ccc(CSc2ccc(F)cc2)cc1 [B45, (Z)-2-(5-Fluoro-1-(4-(((4-fluorophenyl)thio)methyl)benzylidene)-2-methyl-1H-inden-3-yl)acetic acid]",< 30%,< 30%,–,< 30%,≥ 50%,< 30%,≥ 50%,< 30%,< 30%,< 30%,≥ 50%,< 30%,≥ 50%,–,< 30%,30 to 50%,–,< 30%
